Values after ≈ are worked out from the molar mass of the structure shown.
Test system: Mycobacterium tuberculosis
Experiment: Antibacterial activity against multidrug resistant Mycobacterium tuberculosis
Assay type: functional

**Q.** How did the MIC turn out when `CCCCCCCCCCS(=O)(=O)CC(N)=O` was run?
**A.** 0.75 to 1.5 µg/mL (≈ 2.85 to 5.69 µM)

Reference: ChEMBL document CHEMBL4346683 (Eur J Med Chem, 2019)
